This is an account of results in article PMC5814754, “Quantitative, Wide-Spectrum Kinase Profiling in Live Cells for Assessing the Effect of Cellular ATP on Target Engagement” (Cell Chemical Biology, 2018).

In general, pEC50 refers to the EC50 on a negative log10 scale, so that one unit is a factor of ten.

pEC50: −log10 of the molar value. Some results are limits rather than exact numbers.

What all share (assay): Apparent affinity (EC50) of energy transfer probes by titration onto live HEK293 cells expressing kinase/Nluc fusions (Table S1)
Type in all cases: binding

Experiment [1] concerns the target full-length kinase/Nluc fusion proteins (Homo sapiens, UniProt Q13043). To be noted: STK4 (NP_006273), Nluc orientation N; read-out: Probe EC50.
Experiment [2] addresses full-length kinase/Nluc fusion proteins (Homo sapiens, UniProt Q14680). To be noted: MELK, Nluc N; read-out: Probe EC50.
Experiment [3] has as its target full-length kinase/Nluc fusion proteins (Homo sapiens, UniProt O60674). As to conditions: JAK2, Nluc C; read-out: Probe EC50.
Experiment [4] deals with full-length kinase/Nluc fusion proteins (Homo sapiens, UniProt Q9Y616). As to conditions: IRAK3, Nluc N; read-out: Probe EC50.
For experiment [5], the target named is full-length kinase/Nluc fusion proteins (Homo sapiens, UniProt O95835). As to conditions: LATS1, Nluc C; read-out: Probe EC50.
Experiment [6] addresses full-length kinase/Nluc fusion proteins (Homo sapiens, UniProt Q8WU08). As to conditions: STK32A (NP_001106195), Nluc orientation N; read-out: Probe EC50.
Experiment [7] addresses full-length kinase/Nluc fusion proteins (Homo sapiens, UniProt P51817). As to conditions: PRKX, Nluc C; read-out: Probe EC50.
Experiment [8] deals with full-length kinase/Nluc fusion proteins (Homo sapiens, UniProt Q9Y4K4). As to conditions: MAP4K5, Nluc C; read-out: Probe EC50.
The target in experiment [9] is full-length kinase/Nluc fusion proteins (Homo sapiens, UniProt P31751). As to conditions: AKT2, Nluc C; read-out: Probe EC50.
In experiment [10] the target is full-length kinase/Nluc fusion proteins (Homo sapiens, UniProt Q14289). As to conditions: PTK2B, Nluc C; read-out: Probe EC50.
In experiment [11] the target is full-length kinase/Nluc fusion proteins (Homo sapiens, UniProt Q12866). As to conditions: MERTK, Nluc C; read-out: Probe EC50.
In experiment [12] the target is full-length kinase/Nluc fusion proteins (Homo sapiens, UniProt Q7KZI7). To be noted: MARK2, Nluc N; read-out: Probe EC50.
The target in experiment [13] is full-length kinase/Nluc fusion proteins (Homo sapiens, UniProt Q9HAZ1). To be noted: CLK4, Nluc C; read-out: Probe EC50.
In experiment [14] the target is full-length kinase/Nluc fusion proteins (Homo sapiens, UniProt Q16584). To be noted: MAP3K11, Nluc N; read-out: Probe EC50.
Experiment [15] concerns the target full-length kinase/Nluc fusion proteins (Homo sapiens, UniProt Q16620). As to conditions: NTRK2, Nluc C; read-out: Probe EC50.
The target in experiment [16] is full-length kinase/Nluc fusion proteins (Homo sapiens, UniProt P11309). To be noted: PIM1, Nluc C; read-out: Probe EC50.
Experiment [17] has as its target full-length kinase/Nluc fusion proteins (Homo sapiens, UniProt Q92630). As to conditions: DYRK2, Nluc C; read-out: Probe EC50.
Experiment [18] concerns the target full-length kinase/Nluc fusion proteins (Homo sapiens, UniProt Q13470). As to conditions: TNK1 (NP_003976), Nluc orientation N; read-out: Probe EC50.
For experiment [19], the target named is full-length kinase/Nluc fusion proteins (Homo sapiens, UniProt P11362). To be noted: FGFR1, Nluc C; read-out: Probe EC50.
In experiment [20] the target is full-length kinase/Nluc fusion proteins (Homo sapiens, UniProt P29376). As to conditions: LTK, Nluc C; read-out: Probe EC50.
Experiment [21] has as its target full-length kinase/Nluc fusion proteins (Homo sapiens, UniProt P16591). To be noted: FER, Nluc C; read-out: Probe EC50.
Experiment [22] has as its target full-length kinase/Nluc fusion proteins (Homo sapiens, UniProt Q15418). To be noted: RPS6KA1 (NP_002944), Nluc orientation N; read-out: Probe EC50.
The target in experiment [23] is full-length kinase/Nluc fusion proteins (Homo sapiens, UniProt Q9NY57). To be noted: STK32B (NP_060871), Nluc orientation N; read-out: Probe EC50.
In experiment [24] the target is full-length kinase/Nluc fusion proteins (Homo sapiens, UniProt P08069). As to conditions: IGF1R, Nluc C; read-out: Probe EC50.
Experiment [25] concerns the target full-length kinase/Nluc fusion proteins (Homo sapiens, UniProt P08631). To be noted: HCK, Nluc C; read-out: Probe EC50.
Experiment [26] deals with full-length kinase/Nluc fusion proteins (Homo sapiens, UniProt P09769). As to conditions: FGR, Nluc N; read-out: Probe EC50.
The target of experiment [27] is full-length kinase/Nluc fusion proteins (Homo sapiens, UniProt P42680). As to conditions: TEC (NP_003206), Nluc orientation N; read-out: Probe EC50.
In experiment [28] the target is full-length kinase/Nluc fusion proteins (Homo sapiens, UniProt Q16832). To be noted: DDR2, Nluc C; read-out: Probe EC50.
In experiment [29] the target is full-length kinase/Nluc fusion proteins (Homo sapiens, UniProt P42684). As to conditions: ABL2, Nluc N; read-out: Probe EC50.
Experiment [30] has as its target full-length kinase/Nluc fusion proteins (Homo sapiens, UniProt P57059). As to conditions: SIK1 (NP_001307572), Nluc orientation N; read-out: Probe EC50.
Experiment [31] addresses full-length kinase/Nluc fusion proteins (Homo sapiens, UniProt Q16539). To be noted: MAPK14, Nluc C; read-out: Probe EC50.
Experiment [32] concerns the target full-length kinase/Nluc fusion proteins (Homo sapiens, UniProt P00519). To be noted: ABL1, Nluc N; read-out: Probe EC50.

Sequence of full-length kinase/Nluc fusion proteins (Homo sapiens, UniProt Q14289) (Q14289 whole entry, the tested form may be a part): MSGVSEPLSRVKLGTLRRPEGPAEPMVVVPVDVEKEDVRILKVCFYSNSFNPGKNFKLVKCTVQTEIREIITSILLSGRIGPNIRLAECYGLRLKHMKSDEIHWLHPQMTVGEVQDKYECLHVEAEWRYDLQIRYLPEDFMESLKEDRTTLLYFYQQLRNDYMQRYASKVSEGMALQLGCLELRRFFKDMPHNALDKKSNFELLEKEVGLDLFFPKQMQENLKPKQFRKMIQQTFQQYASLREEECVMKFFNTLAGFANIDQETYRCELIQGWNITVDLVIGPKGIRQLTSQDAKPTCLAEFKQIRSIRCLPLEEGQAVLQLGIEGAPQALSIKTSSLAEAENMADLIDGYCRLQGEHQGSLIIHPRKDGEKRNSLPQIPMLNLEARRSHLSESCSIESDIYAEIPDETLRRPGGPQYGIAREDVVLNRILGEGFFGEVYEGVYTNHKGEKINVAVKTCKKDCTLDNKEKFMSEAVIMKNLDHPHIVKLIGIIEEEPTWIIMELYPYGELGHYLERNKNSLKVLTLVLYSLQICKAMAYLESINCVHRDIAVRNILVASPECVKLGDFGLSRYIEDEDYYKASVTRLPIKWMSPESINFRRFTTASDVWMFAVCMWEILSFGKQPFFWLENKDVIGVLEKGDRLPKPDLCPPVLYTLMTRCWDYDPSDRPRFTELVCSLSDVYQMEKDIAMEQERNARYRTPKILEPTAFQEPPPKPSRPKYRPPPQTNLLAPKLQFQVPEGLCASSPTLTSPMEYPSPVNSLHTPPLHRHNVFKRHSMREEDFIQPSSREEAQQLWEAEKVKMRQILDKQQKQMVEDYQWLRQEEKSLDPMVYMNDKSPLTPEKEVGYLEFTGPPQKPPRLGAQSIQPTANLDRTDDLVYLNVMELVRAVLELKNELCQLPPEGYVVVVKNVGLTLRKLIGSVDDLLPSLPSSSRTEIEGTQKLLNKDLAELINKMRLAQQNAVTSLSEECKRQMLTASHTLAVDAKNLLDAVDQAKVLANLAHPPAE
Sequence of full-length kinase/Nluc fusion proteins (Homo sapiens, UniProt P11362) (P11362 22-822): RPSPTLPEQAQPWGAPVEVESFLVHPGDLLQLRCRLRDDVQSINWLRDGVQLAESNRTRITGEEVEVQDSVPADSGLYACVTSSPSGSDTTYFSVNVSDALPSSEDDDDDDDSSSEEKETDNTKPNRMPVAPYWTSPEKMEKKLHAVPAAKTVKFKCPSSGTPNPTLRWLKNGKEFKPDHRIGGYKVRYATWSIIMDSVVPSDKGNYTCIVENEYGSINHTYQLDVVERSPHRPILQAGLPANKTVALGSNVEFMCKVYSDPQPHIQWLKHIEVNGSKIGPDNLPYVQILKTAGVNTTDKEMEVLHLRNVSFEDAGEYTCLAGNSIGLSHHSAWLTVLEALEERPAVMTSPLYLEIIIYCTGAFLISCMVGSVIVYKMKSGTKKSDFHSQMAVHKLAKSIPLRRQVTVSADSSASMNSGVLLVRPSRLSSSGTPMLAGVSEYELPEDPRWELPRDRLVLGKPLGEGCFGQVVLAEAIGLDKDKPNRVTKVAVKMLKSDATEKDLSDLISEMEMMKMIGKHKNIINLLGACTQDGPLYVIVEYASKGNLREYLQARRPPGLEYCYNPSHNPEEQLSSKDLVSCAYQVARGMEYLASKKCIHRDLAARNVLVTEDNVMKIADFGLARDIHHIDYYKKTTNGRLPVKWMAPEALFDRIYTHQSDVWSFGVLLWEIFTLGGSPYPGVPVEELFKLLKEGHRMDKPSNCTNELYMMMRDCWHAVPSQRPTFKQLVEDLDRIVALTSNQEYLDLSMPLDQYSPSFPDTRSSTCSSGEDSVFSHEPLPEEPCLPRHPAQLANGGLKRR
Sequence of full-length kinase/Nluc fusion proteins (Homo sapiens, UniProt P16591) (P16591 whole entry, the tested form may be a part): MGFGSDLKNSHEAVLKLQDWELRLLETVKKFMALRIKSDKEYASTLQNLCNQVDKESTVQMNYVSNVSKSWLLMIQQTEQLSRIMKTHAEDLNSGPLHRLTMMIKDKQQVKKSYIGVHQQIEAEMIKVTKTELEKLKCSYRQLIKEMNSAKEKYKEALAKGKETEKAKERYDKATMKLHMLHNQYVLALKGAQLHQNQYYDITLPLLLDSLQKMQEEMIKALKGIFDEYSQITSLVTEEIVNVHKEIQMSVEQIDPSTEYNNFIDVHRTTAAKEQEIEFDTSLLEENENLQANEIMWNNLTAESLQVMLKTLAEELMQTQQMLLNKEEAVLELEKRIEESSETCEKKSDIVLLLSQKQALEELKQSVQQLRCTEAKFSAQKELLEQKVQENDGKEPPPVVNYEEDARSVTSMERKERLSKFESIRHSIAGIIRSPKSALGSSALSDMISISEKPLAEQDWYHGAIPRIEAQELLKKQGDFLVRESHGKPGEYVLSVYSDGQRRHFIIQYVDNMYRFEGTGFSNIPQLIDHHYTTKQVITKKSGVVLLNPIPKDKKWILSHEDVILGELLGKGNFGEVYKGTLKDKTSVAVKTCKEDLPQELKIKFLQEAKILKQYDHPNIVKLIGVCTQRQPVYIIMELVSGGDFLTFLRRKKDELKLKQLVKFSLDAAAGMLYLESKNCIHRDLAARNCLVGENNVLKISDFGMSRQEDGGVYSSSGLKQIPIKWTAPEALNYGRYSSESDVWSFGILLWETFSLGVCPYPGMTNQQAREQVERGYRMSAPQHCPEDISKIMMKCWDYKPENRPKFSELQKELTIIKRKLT
Sequence of full-length kinase/Nluc fusion proteins (Homo sapiens, UniProt Q9Y616) (Q9Y616 whole entry, the tested form may be a part): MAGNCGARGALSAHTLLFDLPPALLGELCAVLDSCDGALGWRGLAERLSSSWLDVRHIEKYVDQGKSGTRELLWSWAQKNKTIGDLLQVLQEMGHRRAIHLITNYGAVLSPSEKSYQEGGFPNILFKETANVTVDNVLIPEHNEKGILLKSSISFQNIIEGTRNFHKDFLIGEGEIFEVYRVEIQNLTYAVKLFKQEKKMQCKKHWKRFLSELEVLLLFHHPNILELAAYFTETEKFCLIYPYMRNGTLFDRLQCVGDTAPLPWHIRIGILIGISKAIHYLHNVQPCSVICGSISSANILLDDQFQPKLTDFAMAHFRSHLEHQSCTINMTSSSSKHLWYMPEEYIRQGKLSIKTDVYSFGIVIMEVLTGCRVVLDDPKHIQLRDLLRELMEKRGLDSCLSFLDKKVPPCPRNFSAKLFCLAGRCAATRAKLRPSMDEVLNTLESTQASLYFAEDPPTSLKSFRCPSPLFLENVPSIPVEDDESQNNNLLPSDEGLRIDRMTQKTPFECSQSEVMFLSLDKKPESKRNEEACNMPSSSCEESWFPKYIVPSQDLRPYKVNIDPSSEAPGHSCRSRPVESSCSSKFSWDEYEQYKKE
Sequence of full-length kinase/Nluc fusion proteins (Homo sapiens, UniProt Q9NY57) (Q9NY57 whole entry, the tested form may be a part): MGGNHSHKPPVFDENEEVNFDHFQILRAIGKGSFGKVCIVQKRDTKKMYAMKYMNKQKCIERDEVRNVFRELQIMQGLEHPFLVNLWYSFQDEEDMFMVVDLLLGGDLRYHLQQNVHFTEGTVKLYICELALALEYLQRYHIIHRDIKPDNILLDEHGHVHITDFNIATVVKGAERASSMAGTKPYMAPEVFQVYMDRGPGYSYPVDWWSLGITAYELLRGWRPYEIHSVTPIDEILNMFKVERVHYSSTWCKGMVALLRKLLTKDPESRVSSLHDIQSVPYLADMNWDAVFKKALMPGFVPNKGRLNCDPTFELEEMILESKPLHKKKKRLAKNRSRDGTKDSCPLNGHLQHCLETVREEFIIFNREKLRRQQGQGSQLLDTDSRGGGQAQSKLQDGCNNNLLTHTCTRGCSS
Sequence of full-length kinase/Nluc fusion proteins (Homo sapiens, UniProt Q16584) (Q16584 whole entry, the tested form may be a part): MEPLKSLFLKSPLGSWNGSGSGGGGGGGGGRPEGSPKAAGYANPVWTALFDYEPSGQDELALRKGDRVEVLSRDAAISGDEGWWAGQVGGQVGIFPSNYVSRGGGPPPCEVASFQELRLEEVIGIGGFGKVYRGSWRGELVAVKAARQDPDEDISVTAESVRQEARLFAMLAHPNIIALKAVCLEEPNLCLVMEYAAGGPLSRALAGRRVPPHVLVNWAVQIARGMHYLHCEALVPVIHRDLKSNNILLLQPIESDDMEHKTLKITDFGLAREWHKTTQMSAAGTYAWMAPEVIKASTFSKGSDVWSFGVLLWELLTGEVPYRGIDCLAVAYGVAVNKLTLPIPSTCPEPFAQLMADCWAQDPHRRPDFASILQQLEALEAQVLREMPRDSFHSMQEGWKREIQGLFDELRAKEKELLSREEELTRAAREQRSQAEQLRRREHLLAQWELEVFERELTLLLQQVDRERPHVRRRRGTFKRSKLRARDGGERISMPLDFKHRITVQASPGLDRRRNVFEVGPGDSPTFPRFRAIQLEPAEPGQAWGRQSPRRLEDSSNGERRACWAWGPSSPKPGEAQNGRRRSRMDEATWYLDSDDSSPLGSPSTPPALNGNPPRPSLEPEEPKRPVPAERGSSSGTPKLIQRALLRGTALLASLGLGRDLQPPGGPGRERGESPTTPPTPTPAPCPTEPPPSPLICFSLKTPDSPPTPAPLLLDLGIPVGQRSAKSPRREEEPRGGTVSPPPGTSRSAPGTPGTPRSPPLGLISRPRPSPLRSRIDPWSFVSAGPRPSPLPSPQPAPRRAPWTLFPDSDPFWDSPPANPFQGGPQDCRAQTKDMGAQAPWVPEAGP
Sequence of full-length kinase/Nluc fusion proteins (Homo sapiens, UniProt Q16539) (Q16539 whole entry, the tested form may be a part): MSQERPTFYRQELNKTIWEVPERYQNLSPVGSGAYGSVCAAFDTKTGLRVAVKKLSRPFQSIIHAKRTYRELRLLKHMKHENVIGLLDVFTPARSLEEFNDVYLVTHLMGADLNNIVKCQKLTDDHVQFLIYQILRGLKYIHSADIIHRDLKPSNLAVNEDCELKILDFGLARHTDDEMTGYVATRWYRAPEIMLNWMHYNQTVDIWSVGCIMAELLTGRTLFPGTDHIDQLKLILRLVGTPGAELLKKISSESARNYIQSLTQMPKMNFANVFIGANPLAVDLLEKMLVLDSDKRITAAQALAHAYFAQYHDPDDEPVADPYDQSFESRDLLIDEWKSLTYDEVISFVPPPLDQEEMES

On to `CNC(=O)c1ccccc1Nc1nc(Nc2ccc(N3CCN(C(=O)CCOCCOCCOCCOCCNC(=O)CCc4ccc5n4[B-](F)(F)[N+]4=C(c6ccc[nH]6)C=CC4=C5)CC3)cc2)ncc1Cl` [Energy Transfer Probe 5, 2-((2-((4-(4-(1-amino-3,6,9,12-tetraoxapentadecan-15-oyl)piperazin-1-yl)phenyl)amino)-5-chloropyrimidin-4-yl)amino)-N-methylbenzamide-NanoBRET 590], for which the pEC50 in experiment [1] is less than 6.00; in experiment [2], less than 6.00; in experiment [3] it was less than 6.00; in experiment [4], 7.22; in experiment [5], 6.22; in experiment [6] it was less than 6.00. Further, the pEC50 in experiment [7] is less than 6.00; in experiment [8], less than 6.00; in experiment [9], less than 6.00; in experiment [10] it was 6.52; in experiment [11], 6.52; in experiment [12], less than 6.00. In addition, the pEC50 in [13] was 6.52; in [14] it was less than 6.00; in [15] it was 6.30; in [16], less than 6.00; in experiment [17] it was less than 6.00; in [18] it was 7.30. Besides, the negative logarithm of the EC50 (pEC50) in [19] is 6.22; in experiment [20] it was less than 6.00; in [21], less than 6.00; in experiment [22], 6.70; in experiment [23], 6.22; in experiment [24], less than 6.00.
Regarding `Cc1nc(Nc2ncc(C(=O)Nc3c(C)cccc3Cl)s2)cc(N2CCN(CCOCCNC(=O)CCc3ccc4n3[B-](F)(F)[N+]3=C(c5ccc[nH]5)C=CC3=C4)CC2)n1` [Energy Transfer Probe 6, 2-((6-(4-(2-(2-aminoethoxy)ethyl)piperazin-1-yl)-2-methylpyrimidin-4-yl)amino)-N-(2-chloro-6-methylphenyl)thiazole-5-carboxamide-NanoBRET 590], the pEC50 was less than 6.00 in experiment [25]; 6.15 in [26]; less than 6.00 in [27]; 7.00 in [28]; 8.00 in experiment [29]; 7.00 in experiment [30]. Further, the pEC50 in experiment [31] is 7.10; in experiment [32], 6.70.
